Reference: article PMC10779086, “3-O-Methyltolcapone and Its Lipophilic Analogues Are Potent Inhibitors of Transthyretin Amyloidogenesis with High Permeability and Low Toxicity” (International Journal of Molecular Sciences, 2023)
Where “and” joins values, the source holds several entries; their conditions need not be identical. Equal values may be shown once. Read-outs that look alike come from different tables or passages of the source.

Tests used:
[1] = cited from earlier work
[2] = Caco-2 intestinal permeability; assay type: in vitro ADME, human; conditions: human; for recovery at 60 min: Caco-2, pH 7.4, with Elacridar 2 µM; for Papp A→B at 60 min, 10 μM / Papp B→A at 60 min, 10 μM: Caco-2, pH 7.4
Experimental: (§1) Caco-2 cells (cod. HTB-37) were bought from ATCC (American Type Culture Collection, Rockville, MD, USA). Caco-2 cells were cultured for 21 days on a 24 trans-well plate to reach the right confluence and differentiate until the formation of the intestinal epithelium mimetic monolayer. The test substance permeability was measured in both directions (apical to basolateral [A→B] and basolateral to apical [B→A]) across the cell monolayer. The assay was carried out in HBSS transport medium at pH 7.4. Test substance at single concentration (10 μM) was tested in duplicate at one time point (60 min). Monolayer integrity of Caco-2 cells was evaluated by TEER measurements during the experiment and by Lucifer Yellow test after the incubation with the test compound. The concentrations of the test substance and/or reference controls were measured by LC-MS/MS.
(§2) When the inhibitor leads the efflux ratio to a significant reduction (>50%) or to unity, the test compound is classified as a probable substrate of that efflux transporter. As control, the modulation of the efflux ratio of a reference known substrate (Digoxin) was evaluated with or without the respectively inhibitors in every experiment. […] In parallel, mass balance (%) of recovered test substance was also determined. […] Outside these ranges the permeability data is not reliable.

Caco-2 cells [3] = experiment: Caco-2 intestinal permeability; assay type: in vitro ADME, human; conditions: reduction of efflux ratio by Elacridar 2 µM
Experimental: as §1, §2

Caco-2 cells [4] = conditions: expected value in brackets, cited from earlier work
[5] = Kinetic solubility in PBS; assay type: physicochemical; conditions: Phosphate Buffered Saline (PBS), aqueous buffer, kinetic from dmso stock, PBS pH 7.4, 1% DMSO
Experimental: (§3) The assay combines solubility and a non-cell-based Blood Brain Barrier permeability assay (Parallel Artificial Membrane Permeation Assay; PAMPA-BBB) into a single workflow in which a portion of the filtrate from the Solubility filter plate is added to the donor compartment of the MultiScreen filter plate for the PAMPA-BBB analysis. […] Solutions were filtered into a 96-well collection plate using vacuum filtration and then analysed by UV/Vis spectroscopy. The relative solubility was then calculated using the sum of the recorded values as compared to a standard calibration curve. […] PAMPA-BBB determination was carried out in a 96-well MultiScreen Permeability plate and the ability of a compound to diffuse from a Donor to an Acceptor compartment separated by a Porcine Brain Lipid Extract (PBLE) dissolved in dodecane (20 mg/mL) layer on a PVDF membrane support was measured. The assay was performed in duplicate in PBS at pH 7.4 and the analysis is carried out by UV/Vis spectroscopy.

TTR [6] = molecular target: TTR (Homo sapiens, UniProt P02766); experiment: Isothermal titration calorimetry (ITC), one-binding-site model; design: made in house; host or cells: E. coli BL21; conditions: single-binding-site model, 25 °C
Experimental: At an absorbance value of 600 nm around 0.3, the temperature was shifted to 30 °C.
Data were fitted using the “one-binding-site model” of the Malvern version of ORIGIN v.7. The heat of binding (ΔH), the stoichiometry (n), entropy (ΔS) and the dissociation constant (Kd) were then calculated from plots of the heat evolved per mole of ligand injected versus the molar ratio of ligand to protein using the software provided by the vendor (Table 3). Sample preparation is detailed below. […] A 10 µM protein stock in 2× buffer was then prepared and diluted 1:1 with a 10% DMSO solution, to obtain a 5 µM TTR solution in 1× buffer A and 5% DMSO. Different protein concentrations (3–5 µM) assayed in the replicates were prepared accordingly, starting from a 2× protein solution in 2× buffer A. Each ligand was dissolved in 100% DMSO and a 2 mM stock solution in 100% DMSO was prepared. A 200 µM compound solution was obtained in 10% DMSO and diluted 1:1 with 2× buffer A, to obtain a 100 µM ligand solution to be used for the ITC assays (in 1× buffer A and 5% DMSO).

[7] = system: SH-SY5Y neuroblastoma human cell line; experiment: Cytotoxicity in SH-SY5Y cells (ATP viability assay); assay type: cell-based; conditions: 48 h
Experimental: The neuroblastoma cell line SHSY-5Y (ATCC CRL2266) was cultured in EMEM ATCC medium supplemented with 10% FBS (Euroclone CAT No. ECS0180D), 100 units/mL penicillin, and 100 ug/mL streptomycin sulphate (Euroclone CAT No. ECB3001). Cells were grown at 37 °C in an atmosphere of 5% CO2 and plated at 10,000 cells/well in a 96-well plate (Corning Cat. N. 3610). The compounds were dissolved at a concentration of 10 mM in DMSO. Cells were stimulated for 48 h at 37 °C with serial dilutions of the compounds at the following concentrations: 0.1, 1, 10, 50, 100, and 200 μM and dispensed with an HP Dispenser (Tecan), as triplicates for each concentration. DMSO normalisation at 1.5% was performed in each well.
(§4) Cell viability was evaluated by measuring ATP levels using CellTiter Glo (Promega Cat.n. G7570) according to manufacturer’s instructions.

TTR [8] = conditions: sequential model, cited from earlier work
[9] = system: HepG2 human liver cancer cell line; experiment: Cytotoxicity in HepG2 cells (ATP viability assay); assay type: cell-based; conditions: 48 h
Experimental: Compounds were dissolved at the concentration of 50 mM in DMSO.
DMSO normalisation at 1.0% was performed in each well.
as §4

[10] = Chromatographic Hydrophobicity Index (CHI); assay type: physicochemical
Text: The assay is a chromatographic fast gradient reversed-phase method which allows to characterize the lipophilicity of compounds in high throughput screening regime at three different pH values (2.0; 7.4; 10.5). The so defined CHI is obtained from the gradient (buffer/Acetonitrile) retention time after calibrating the chromatographic system with a test mixture of ten known standard compounds. For most compounds, CHI is between 0 and 100 and it approximates the percentage (by volume) of acetonitrile required to achieve an equal distribution of compound between the mobile and the lipophilic stationary phase of a C18 chromatographic column. Compounds that are not retained on the column are assigned to a CHI value < 0, which means very low lipophilicity. For highly lipophilic compounds, which are strongly retained by the column, a CHI value of >100 is assigned. For any value in between, the actual CHI value is calculated based on the calibration line of the reference compounds [49].

[11] = Blood-brain barrier permeability (PAMPA-BBB); assay type: in vitro ADME
Experimental: as §3
The compounds are classified into 2 types: CNS+ compounds that can cross the BBB and CNS- compounds that cannot according to the Pe values (BBB−, Pe < 2 × 10^−6 cm/s; BBB +/−, 2 × 10^−6 cm/s < Pe < 4 × 10^−6 cm/s; BBB+, Pe > 4 × 10^−6 cm/s).
Membrane retention is also evaluated according to Equation (1), (1) 1−Rm=CAccVAcc+CDonorVDonor/Sol×VDonor where Rm is the membrane retention factor. 1 − Rm between 1.2 and 0.8 is considered fully acceptable for the reliability of the results.

| SMILES | recovery at 60 min, 10 µM ([2]; Caco-2, pH 7.4, A→B) | recovery at 60 min, 10 µM ([2]; Caco-2, pH 7.4, B→A) | Papp A→B at 60 min, 10 μM [2] | Papp B→A at 60 min, 10 μM [2] | Papp [Expected Values] (Caco-2 cells [4]; A→B) | solubility [5] | n (stoichiometry of binding, ligand:TTR tetramer) (TTR [6]) | ∆H (TTR [6]) | other results |
| --- | --- | --- | --- | --- | --- | --- | --- | --- | --- |
| Cn1c(=O)c2c(ncn2C)n(C)c1=O [Caffeine, caffeine] | – | – | – | – | – | – | – | – | CNS Class [Expected Values] ([1]; expected class in brackets): CNS− [CNS−] (BBB−, Pe < 2 × 10^−6 cm/s); BBB-Pe [Expected Values] ([1]; expected value in brackets): 1.3 10^−6 cm/s |
| C[C@H]1O[C@@H](O[C@H]2[C@@H](O)C[C@H](O[C@H]3[C@@H](O)C[C@H](O[C@H]4CC[C@@]5(C)[C@H](CC[C@@H]6[C@@H]5C[C@@H](O)[C@]5(C)[C@@H](C7=CC(=O)OC7)CC[C@]65O)C4)O[C@@H]3C)O[C@@H]2C)C[C@H](O)[C@@H]1O [Digoxin, reference compound] | 67 ± 5% | 71 ± 6% | 2 ± 1 nm/s | 141 ± 26 nm/s | 2 nm/s | – | – | – | recovery at 60 min ([2]; A→B + Elacridar 2 µM): 72 ± 1%; recovery at 60 min ([2]; B→A + Elacridar 2 µM): 75 ± 3%; efflux ratio at 60 min, 10 μM ([2]; Caco-2, pH 7.4, without inhibitor, read-out: Efflux Ratio (Papp BA/Papp AB)): > 10; Efflux Ratio (Reduction %) (Caco-2 cells [3]): 96%; Papp [Expected Values] (Caco-2 cells [4]; B→A): 139 nm/s |
| COCCc1ccc(OCC(O)CNC(C)C)cc1 (stereo not shown) [Metoprolol, reference compound] | 105 ± 5% | – | > 400 nm/s | – | >400 [>400] nm/s | – | – | – | – |
| Cn1c(=O)c2[nH]cnc2n(C)c1=O [Theophylline, theophylline, reference compound] | – | – | – | – | – | > 500 µM | – | – | – |
| O=C(O)c1ccc2nc(-c3cc(Cl)cc(Cl)c3)oc2c1 [tafamidis, reference compound] | – | – | – | – | – | – | 2.4 ± 0.1 | -13.4 kJ/mol and -13.4 ± 1.3 kJ/mol | – |
| Cc1ccc(C(=O)c2cc(O)c(O)c([N+](=O)[O-])c2)cc1 [tolcapone] | 53 ± 1% | 70 ± 4% | 101 ± 12 nm/s | 206 ± 58 nm/s | – | > 500 µM | 2.0 ± 0.1 | -49.4 kJ/mol and -49.4 ± 2.1 kJ/mol | EC50 [7]: 29.8 ± 1.1 µM; Kd (TTR [8]; read-out: Kd′ (first binding site)): 0.021 µM; Kd (TTR [8]; read-out: Kd″ (second binding site)): 0.058 µM; EC50 [9]: 17.5 ± 2.4 µM; CHI (pH 2.0) ([10]; pH 2.0): 78.2; CHI (pH 10.5) ([10]; pH 10.5): 49.3; 1-Rm (membrane retention) [11]: 0.9; Papp ([11]; PBS pH 7.4, read-out: BBB-Pe): 56 nm/s; CNS Class ([11]; classified by Pe): CNS+ (BBB+, Pe > 4 × 10^−6 cm/s) |
